{"source": "paper PMC12386283", "about": "“Elucidating the Complex Structural and Molecular Mechanisms Driving P-Glycoprotein-Mediated Transport of Cardiac Glycosides” (International Journal of Molecular Sciences, 2025)", "key": {"[1]": {"target": "T1, wild-type mouse Pgp (MDR3) (Mus musculus, UniProt P21447)", "T1 sequence (P21447 whole entry)": "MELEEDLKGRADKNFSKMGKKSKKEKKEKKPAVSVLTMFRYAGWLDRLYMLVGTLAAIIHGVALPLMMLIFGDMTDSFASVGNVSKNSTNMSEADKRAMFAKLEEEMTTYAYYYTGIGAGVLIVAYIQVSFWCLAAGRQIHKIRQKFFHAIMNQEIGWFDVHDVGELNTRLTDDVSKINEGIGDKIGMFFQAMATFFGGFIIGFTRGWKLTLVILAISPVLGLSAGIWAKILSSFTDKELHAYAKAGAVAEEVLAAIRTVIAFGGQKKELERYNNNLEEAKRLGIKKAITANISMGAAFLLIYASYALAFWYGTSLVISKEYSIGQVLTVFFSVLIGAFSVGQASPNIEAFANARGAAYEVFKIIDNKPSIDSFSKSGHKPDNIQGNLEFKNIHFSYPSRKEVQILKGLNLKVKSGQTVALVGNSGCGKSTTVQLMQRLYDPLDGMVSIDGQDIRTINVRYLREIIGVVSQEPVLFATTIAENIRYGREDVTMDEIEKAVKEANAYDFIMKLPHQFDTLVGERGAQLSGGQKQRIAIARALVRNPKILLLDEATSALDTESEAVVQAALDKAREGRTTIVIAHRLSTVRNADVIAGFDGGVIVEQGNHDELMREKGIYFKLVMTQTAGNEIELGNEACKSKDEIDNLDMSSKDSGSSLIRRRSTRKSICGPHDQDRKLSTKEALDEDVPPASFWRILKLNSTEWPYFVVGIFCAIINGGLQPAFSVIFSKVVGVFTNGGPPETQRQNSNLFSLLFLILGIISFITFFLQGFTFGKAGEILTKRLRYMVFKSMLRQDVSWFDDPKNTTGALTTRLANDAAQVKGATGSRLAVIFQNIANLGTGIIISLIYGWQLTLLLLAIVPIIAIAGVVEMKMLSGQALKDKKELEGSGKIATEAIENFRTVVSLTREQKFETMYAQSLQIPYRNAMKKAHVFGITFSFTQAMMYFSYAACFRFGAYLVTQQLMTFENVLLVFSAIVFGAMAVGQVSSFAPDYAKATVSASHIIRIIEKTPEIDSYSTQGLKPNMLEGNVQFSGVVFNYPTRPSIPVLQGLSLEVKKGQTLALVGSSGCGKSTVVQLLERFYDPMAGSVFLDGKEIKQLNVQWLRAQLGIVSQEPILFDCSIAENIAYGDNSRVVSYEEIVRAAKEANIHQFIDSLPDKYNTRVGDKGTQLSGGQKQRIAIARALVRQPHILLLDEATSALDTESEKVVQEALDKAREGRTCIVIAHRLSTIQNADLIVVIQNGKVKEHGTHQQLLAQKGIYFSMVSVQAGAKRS", "procedure": "(§1) Overexpression of wild-type mouse Pgp (MDR3) was achieved by using genetically engineered strains of Pichia pastoris with a 6X histidine tag. The cells were cultured in glycerol media, and methanol was used to induce the overexpression of Pgp at the Bioexpression and Fermentation Facility (BFF), University of Georgia, Athens, GA, USA. A repeated cycle of freezing using liquid nitrogen, blending, and thawing was used to lyse the Pgp-expressing P. pastoris cells. The protein was purified using affinity chromatography with nickel-nitrilotriacetic acid (Ni-NTA) resin (Thermo Fisher Scientific, Waltham, MA, USA). DDM was used to solubilize the protein, and the solution was concentrated using Amicon Ultra-15 100 kDa cut-off filters (EMD Millipore, Billerica, MA, USA). The concentration of purified protein was measured at 280 nm using a calculated extinction coefficient of 1.28 per mg mL^−1 on a Nanodrop (DeNovix, Wilmington, DE, USA). […] The purified DDM-solubilized Pgp was aliquoted and stored at −80 °C for future analysis.\n(§2) Approximately 40 µL of DDM-solubilized Pgp was dialyzed for two hours against HEPES buffer (20 mM HEPES, 100 mM NaCl, 5 mM MgCl2, 2 mM DTT, pH 7.4) to remove any remnants of the detergent, DDM. The dialyzed protein was mixed with 4 mg mL^−1 of the extruded liposomes and incubated on ice for at least one hour to allow Pgp to integrate into the liposomes. To remove any additional detergent and further facilitate Pgp integration into the liposome, the solution was dialyzed for a second time for two hours in HEPES buffer to form proteoliposomes, and the concentration of Pgp reconstituted in liposomes was determined using the Bio-Rad DC Protein assay. Finally, the solution was aliquoted and stored at −80 °C for future use.\nAcrylamide, an aqueous collisional quencher, can be used to determine the changes in conformation upon Pgp-drug interaction. The principle of this technique is that as the drug interacts with the protein, the conformation of the accessible tryptophan residues in the protein also changes, resulting in a shift in fluorescence intensity. For this experiment, to measure the fluorescence of Pgp reconstituted in liposomes, in the presence (250 µM) or absence of drug(s), the excitation and emission wavelengths used were 295 nm and 330 nm, respectively. The proteoliposomes were diluted to a final concentration of 1 µM in Chifflet buffer (pH 7.4) containing 2 mM DTT, and it was titrated against an increasing concentration of acrylamide. A concentration of 11 µM N-acetyl-L-tryptophanamide (NATA), an analog of tryptophan, was used as a positive control to determine non-specific quenching. A saturated concentration of AMPPNP (3.2 mM), a non-hydrolysable form of ATP, was used to generate an outward-open conformation of Pgp. All the experiments for acrylamide quenching were performed at 21 °C. To correct the fluorescence intensities for background, dilution, and inner filter effects, […] was used. A Stern–Volmer plot was constructed with F0(corrected)/F(corrected) versus acrylamide concentration. The slope of the curve determined the degree of quenching, and it was related to the Stern–Volmer constant (Ksv) by Equation (4), as follows:(4) Focorrected/Fcorrected=1+KsvQ where F0(corrected)/F(corrected) = Stern–Volmer plot; Ksv = Stern–Volmer constant; and [Q] = acrylamide concentration."}, "[2]": {"target": "T1, wild-type mouse Pgp (MDR3)", "assay": "biochemical", "procedure": "as §1, §2\nThe intrinsic tryptophan residues in the protein can be selectively excited and emitted at 295 nm and 330 nm wavelengths, respectively. The binding of the drug to the protein can alter the spatial arrangement encountered by the tryptophan residue(s) and thereby regulate the fluorescence intensity of the protein [52]. […] Proteoliposomes diluted to 1 µM in Chifflet buffer containing 2 mM DTT were titrated against varying concentrations of drugs. The intrinsic protein fluorescence was measured at 330 nm upon excitation at 295 nm using an Olis DM 45 spectrophotometer (Olis Corporation, Bogart, GA, USA). To nullify the effect of Rayleigh bands on the observed spectra, a 10 nm band-pass filter was inserted on the excitation and emission paths of the spectrophotometer. The drug-induced quenching of intrinsic Pgp fluorescence was corrected (Fcorrected) for factors such as dilution, background fluorescence, and inner filter effects using the equation mentioned below (Equation (2)).(2) Fcorrected=F−B10^εexbex+εembemQ/2 where Fcorrected = Drug-induced quenching of intrinsic Pgp fluorescence; F = Emitted intrinsic Pgp fluorescence at 330 nm; [Q] = Concentration of drug; εex and εem = Excitation and emission extinction coefficients, respectively; bex and bem = Path lengths of excitation (0.4 mm) and emission (10 mm) wavelengths, respectively; and B = Background fluorescence measured from drug and solvent.\nThe resulting quenching curves were fit using a modified Stern-Volmer equation (Equation (3)), as follows:(3) Fcorrected=FOcorrected/1+KsvQ+Funquenched where Fcorrected = The corrected fluorescence; F0(corrected) = Fluorescence recorded in the absence of drug; [Q] = Concentration of drug; Ksv = Stern–Volmer constant; and F(unquenched) = unquenched fluorescence."}, "[3]": {"target": "T1, wild-type mouse Pgp (MDR3)", "settings": "mouse, not told, pH 7.4", "excerpt": "The STDD NMR technique is a robust method used to characterize the interaction between a drug and receptor protein [36, 86]. This technique utilizes a saturated low-strength radio frequency (RF) to selectively excite the receptor protein. […] Due to the localization of Pgp, most of its substrates are lipophilic, resulting in a probable non-specific interaction between its substrates and liposomes in the observed STD NMR spectrum. Therefore, STD NMR of liposomes in the presence of drugs was performed. The resulting spectrum was subtracted from the ^1H STD NMR spectrum obtained from the drug in the presence of proteoliposome (Pgp reconstituted into liposome) to achieve a saturation transfer double-difference (STDD) NMR spectrum, which nullified the STD observations of the drugs in the presence of liposomes.\nThis technique was performed as previously described. […] The NMR tubes with the sample were centrifuged at 3000× g for 5 min. To suppress the background signals caused by water, a tailored gradient pulse sequence known as water suppression by gradient-tailored excitation (WATERGATE) was also included. A train of 50 ms Gaussian-shaped selective pulses was used to selectively excite and saturate Pgp for two seconds, and a relaxation delay of five seconds was also used. The STD NMR spectra for both the control and the samples were obtained through phase cycling, where the Pgp irradiation resonance was alternated between 1.5 ppm and 42 ppm on and off resonance, respectively, for 512 scans, creating the ^1H NMR spectrum.\nFor this experiment, the NMR studies were performed on a Bruker Avance NEO 800 MHz NMR spectrometer with a 1.7 mm TCI H{CN} probe at 25 °C. The STD NMR data generated were analyzed using iNMR software (Nucleomatic, Molfetta, Italy), Igor Pro 6.2, and Mnova 14.2.0 (Mastrelab Research S.L., Santiago de Compostela, Spain)."}}, "data": [{"smiles": "Nc1ncnc2c1ncn2[C@@H]1O[C@H](COP(=O)([O-])OP(=O)([O-])NP(=O)([O-])[O-])[C@@H](O)[C@H]1O.[Li+].[Li+].[Li+].[Li+]", "note": "[AMPPNP, Adenosine 5′-(β,γ-imido) triphosphate lithium salt]", "values": [{"measurement": "Ksv of Pgp (acrylamide quenching) in the presence of AMPPNP alone", "setting": "[1]", "result": "1.6 ± 0.01", "unit": "M⁻¹"}]}, {"smiles": "C[C@H]1O[C@@H](O[C@H]2[C@@H](O)C[C@H](O[C@H]3[C@@H](O)C[C@H](O[C@H]4CC[C@@]5(C)[C@H](CC[C@@H]6[C@@H]5CC[C@]5(C)[C@@H](C7=CC(=O)OC7)CC[C@]65O)C4)O[C@@H]3C)O[C@@H]2C)C[C@H](O)[C@@H]1O", "note": "[Digitoxin]", "values": [{"measurement": "Kd", "setting": "[2]", "result": "16.7 ± 4.44", "unit": "µM"}, {"measurement": "Pgp conformation upon drug binding in the absence of a nucleotide", "setting": "[1]", "result": "intermediate"}, {"measurement": "Interaction (Region/Group) Pgp (STDD-NMR Data)", "setting": "[3]", "result": "Protons on C3,C17, C18, C19 of steroid; C22 of lactone; C3,C5,C6 of sugar"}]}]}
